Non-standard residues stand in square brackets, D forms with d. Residues, ends and D or L forms follow the SMILES beside them. *: point of attachment. X1 = Fc1ccc(-c2csc(N3CCOCC3)n2)c(OCCOCCOCCN*)c1F; Dip = N[C@H](C(=O)O)C(c1ccccc1)c1ccccc1; Chg = N[C@H](C(=O)O)C1CCCCC1; NMeA = CN[C@@H](C)C(=O)O
Experiments:
Format in all cases: physicochemical
[1] = Distribution coefficient, logD of compound in n-Octanol/PBS at pH 7.4 incubated for 30 mins under shaking condition by UV-Vis spectroscopic analysis; details: for logD: octanol/water, pH 7.4, 0.5 h, BLD = below limit of detection; for logD at 0.5 h: n-octanol/PBS, pH 7.4
[2] = Kinetic solubility of the compound incubated for 60 mins under shaking condition by UHPLC-MS analysis; details: 1 h
[3] = Distribution coefficient, logD of compound in n-Octanol/PBS at pH 7.4 incubated for 30 mins under shaking condition by UHPLC-MS analysis
[4] = Kinetic solubility of the compound incubated for 60 mins under shaking condition by UV-Vis spectroscopic analysis; details: 1 h

SMILES	logD [1]	log(Kinetic_solubility) ([2]; BLD = below limit of detection)	logD at 0.5 h [3]	log(Kinetic_solubility) ([4]; BLD = below limit of detection)	log(Kinetic_solubility) [2]	log(Kinetic_solubility) [4]	logD at 0.5 h [1]
CCOC(=O)c1c(C)n(Cc2ccccc2)c2ccc(OCCCCCCCCCCC(=O)N[C@H](C(=O)N3C[C@H](O)C[C@H]3C(=O)N[C@@H](C)c3ccc(-c4scnc4C)cc3)C(C)(C)C)cc12	Bld	Bld	5.2	Bld	–	–	–
CCOC(=O)c1c(C)n(Cc2ccccc2)c2ccc(OCCCCCCCCC(=O)N[C@H](C(=O)N3C[C@H](O)C[C@H]3C(=O)N[C@@H](C)c3ccc(-c4scnc4C)cc3)C(C)(C)C)cc12	Bld	Bld	5.21	Bld	–	–	–
Cc1ncsc1-c1ccc([C@H](CC(=O)NCCCCCCNC(=O)COc2c(-c3csc(N4CCOCC4)n3)ccc(F)c2F)NC(=O)[C@@H]2C[C@@H](O)CN2C(=O)[C@@H](NC(=O)C2(F)CC2)C(C)(C)C)cc1	Bld	–	4.82	–	-5.14	-5	–
Cc1ncsc1-c1ccc(CNC(=O)[C@@H]2C[C@@H](O)CN2C(=O)[C@@H](NC(=O)CCCCOCCCCCOCCCCCCNc2cccc3c2C(=O)N(C2CCC(=O)NC2=O)C3=O)C(C)(C)C)cc1 (stereo partly drawn)	Bld	–	5.2	Bld	-7.05	–	–
COc1ccc2c(c1)c(CC(=O)N1CCN(CC(=O)N[C@H](C(=O)N3C[C@H](O)C[C@H]3C(=O)N[C@@H](C)c3ccc(-c4scnc4C)cc3)C(C)(C)C)CC1)c(C)n2C(=O)c1ccc(Cl)cc1	Bld	–	5.3	Bld	-6.62	–	–
O=C(COc1c(-c2csc(N3CCOCC3)n2)ccc(F)c1F)NCCCCCCCCCCNc1ccc2nnn(C3CCC(=O)NC3=O)c(=O)c2c1 (stereo not drawn)	Bld	Bld	4.93	Bld	–	–	–
Cc1ncsc1-c1ccc([C@H](C)NC(=O)[C@@H]2C[C@@H](O)CN2C(=O)[C@@H](NC(=O)CN2CCN(C(=O)C[C@@H]3N=C(c4ccc(Cl)cc4)c4c(sc(C)c4C)-n4c(C)nnc43)CC2)C(C)(C)C)cc1	Bld	–	4.56	–	-4.9	-4.79	–
O=C(CCCCCCCCCCC(=O)N1CCN(C(=O)c2cc(Cc3n[nH]c(=O)c4ccccc34)ccc2F)CC1)NCCNc1cccc2c1C(=O)N(C1CCC(=O)NC1=O)C2=O (stereo not drawn)	–	–	3.64	Bld	-6.13	–	3.48
Cn1c(=O)n(C)c2cc(CNCCCNCC3CCN(c4ccc(C(=O)N[C@H]5CC[C@H](Oc6ccc(C#N)c(Cl)c6)CC5)nn4)CC3)ccc21	Bld	–	4.43	–	-4.14	-4.28	–
O=C(COc1c(-c2csc(N3CCOCC3)n2)ccc(F)c1F)NCCOCCOCCOCCOCCNc1cccc2c1C(=O)N(C1CCC(=O)NC1=O)C2=O (stereo not drawn)	–	–	2.82	–	-4.28	-4.28	2.82
Cc1ncsc1-c1ccc(CNC(=O)[C@@H]2C[C@@H](O)CN2C(=O)[C@@H](NC(=O)COCCOCCOCC(=O)N[C@H](C(=O)N2C[C@H](O)C[C@H]2C(=O)NCc2ccc(-c3scnc3C)cc2)C(C)(C)C)C(C)(C)C)cc1	–	–	3.19	–	-3.98	-3.93	3.7
CCOC(=O)c1c(C)n(Cc2ccccc2)c2ccc(OCC(=O)NCCCC(=O)N[C@H](C(=O)N3C[C@H](O)C[C@H]3C(=O)N[C@@H](C)c3ccc(-c4scnc4C)cc3)C(C)(C)C)cc12	Bld	–	5.1	Bld	-6.23	–	–
Cc1ncsc1-c1ccc([C@H](C)NC(=O)[C@@H]2C[C@@H](O)CN2C(=O)[C@@H](NC(=O)CNCCOCCOc2c(-c3csc(N4CCOCC4)n3)ccc(F)c2F)C(C)(C)C)cc1	Bld	–	5.2	–	-5.22	-4.82	–
COc1ccc2c(c1)c(CC(=O)NCCN1CCN(CCOCCOCC(=O)N[C@H](C(=O)N3C[C@H](O)C[C@H]3C(=O)N[C@@H](C)c3ccc(-c4scnc4C)cc3)C(C)(C)C)CC1)c(C)n2C(=O)c1ccc(Cl)cc1	Bld	–	5.1	–	-4.62	-4.59	–
COc1ccc2c(c1)c(CC(=O)NCCCCC(=O)N[C@H](C(=O)N1C[C@H](O)C[C@H]1C(=O)N[C@@H](C)c1ccc(-c3scnc3C)cc1)C(C)(C)C)c(C)n2C(=O)c1ccc(Cl)cc1	Bld	–	5.47	Bld	-6.1	–	–
COc1ccc2c(c1)c(CC(=O)N1CCN(CCC(=O)N[C@H](C(=O)N3C[C@H](O)C[C@H]3C(=O)N[C@@H](C)c3ccc(-c4scnc4C)cc3)C(C)(C)C)CC1)c(C)n2C(=O)c1ccc(Cl)cc1	Bld	–	5.5	Bld	-6.1	–	–
COc1ccc2c(c1)c(CC(=O)N1CCN(CCOCCOCC(=O)N[C@H](C(=O)N3C[C@H](O)C[C@H]3C(=O)N[C@@H](C)c3ccc(-c4scnc4C)cc3)C(C)(C)C)CC1)c(C)n2C(=O)c1ccc(Cl)cc1	–	–	4.33	–	-5.22	-5.11	4.1
Cc1ncsc1-c1ccc(CNC(=O)[C@@H]2C[C@@H](O)CN2C(=O)[C@@H](NC(=O)COCCOCCOCCOCCOCCOCC(=O)N[C@H](C(=O)N2C[C@H](O)C[C@H]2C(=O)NCc2ccc(-c3scnc3C)cc2)C(C)(C)C)C(C)(C)C)cc1	–	–	3	–	-3.24	-3.25	3.09
CN[C@@H](C)C(=O)N[C@H](C(=O)N1CCC[C@H]1C(=O)N[C@H](C(=O)NCCOCCOCCOc1c(-c2csc(N3CCOCC3)n2)ccc(F)c1F)C(c1ccccc1)c1ccccc1)C1CCCCC1 (H-[NMeA][Chg]P[Dip]-X1)	Bld	–	5.1	–	-4.55	-4.49	–
Cc1ncsc1-c1ccc([C@H](CC(=O)N2CCC(N3CCC(C#Cc4ccc(C(=O)N[C@H]5C(C)(C)[C@H](Oc6ccc(C#N)c(Cl)c6)C5(C)C)cc4)CC3)CC2)NC(=O)[C@@H]2C[C@@H](O)CN2C(=O)[C@@H](NC(=O)C2(F)CC2)C(C)(C)C)cc1	Bld	Bld	5.5	Bld	–	–	–
N#Cc1ccc(O[C@H]2CC[C@H](NC(=O)c3ccc(N4CCC(CN5CCN(c6cc7c(cc6F)C(=O)N(C6CCC(=O)NC6=O)C7=O)CC5)CC4)nn3)CC2)cc1Cl (stereo partly drawn) [BAVDEGALUTAMIDE]	Bld	Bld	5.38	Bld	–	–	–
Cc1ncsc1-c1ccc([C@H](C)NC(=O)[C@@H]2C[C@@H](O)CN2C(=O)[C@@H](NC(=O)CCCCCCOc2ccc3c(c2)c(C(=O)O)c(C)n3Cc2ccccc2)C(C)(C)C)cc1	Bld	–	5	Bld	-5.8	–	–
